Experiments:
crabgrass [1] = experiment: Test A pre-/postemergence greenhouse test; assay type: in vivo, Digitaria sanguinalis; settings: for Crabgrass, Large plant response rating: 0 to 100 scale
In short: (§1)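 Herbicidal effect is a visual injury score given about ten days post-treatment by comparison with untreated controls. Preemergence plots received a directed spray onto sown loam–sand soil; postemergence plants, at the one- to two-leaf stage and 2–10 cm tall, were sprayed at the same time.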

Italian ryegrass = experiment: Test C pre-/postemergence test; assay type: in vivo, Lolium multiflorum
In short: (§2)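 Seeds were planted and treated preemergence with test chemical in a non-phytotoxic solvent mixture containing surfactant. Postemergence applications of the same formulation went onto plants 2 to 18 cm tall (1- to 4-leaf stage). A dash marks no test result.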

pigweed = experiment: Test C pre-/postemergence test; assay type: in vivo, Amaranthus retroflexus
In short: as §2

lambsquarters = experiment: Test C pre-/postemergence test; assay type: in vivo, Chenopodium album
In short: as §2

Goosegrass = experiment: Test C pre-/postemergence test; assay type: in vivo, Eleusin indica
In short: as §2

bermudagrass = experiment: Test C pre-/postemergence test; assay type: in vivo, Cynodon dactylon
In short: as §2

morningglory = experiment: Test A pre-/postemergence greenhouse test; assay type: in vivo, Ipomoea spp.; settings: for Morningglory plant response rating: 0 to 100 scale
In short: as §1

barnyardgrass [2] = experiment: Test A pre-/postemergence greenhouse test; assay type: in vivo, Echinochloa crus-galli; settings: for Barnyardgrass plant response rating: 0 to 100 scale
In short: as §1

soybean = experiment: Test C pre-/postemergence test; assay type: in vivo, Glycine max
In short: as §2

[3] = system: common (oilseed) sunflower; experiment: Test C pre-/postemergence test; assay type: in vivo, Helianthus annuus; settings: for Sunflower plant response rating: preemergence, scale 0 (no effect) to 100 (complete control)
In short: as §2

cocklebur = experiment: Test C pre-/postemergence test; assay type: in vivo, Xanthium strumarium
In short: as §2

barnyardgrass [4] = experiment: Test C flooded paddy test; assay type: in vivo, Echinochloa crus-galli; settings: Flood
In short: (§3)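 Under a constant 3 cm flood, test compounds went directly into the paddy water. Following 13 to 15 days of greenhouse growth, treated species and controls were compared by eye.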

kochia = experiment: Test C pre-/postemergence test; assay type: in vivo, Kochia scoparia
In short: as §2

crabgrass [5] = experiment: Test C pre-/postemergence test; assay type: in vivo, Digitaria sanguinalis
In short: as §2

Surinam grass = experiment: Test C pre-/postemergence test; assay type: in vivo, Brachiaria decumbens; settings: for Surinam Grass plant response rating: preemergence, scale 0 (no effect) to 100 (complete control)
In short: as §2

giant foxtail = experiment: Test A pre-/postemergence greenhouse test; assay type: in vivo, Setaria faberi; settings: for Foxtail, Giant plant response rating: 0 to 100 scale
In short: as §1

umbrella sedge = experiment: Test C flooded paddy test; assay type: in vivo, Cyperus difformis; settings: Flood
In short: as §3

[6] = Postemergence, 125 g ai/ha, 0 is no effect, 100 is complete control
[7] = Postemergence, 500 g ai/ha, 0 is no effect, 100 is complete control
[8] = Preemergence, 125 g ai/ha, 0 no effect, 100 complete control
[9] = Preemergence, 500 g ai/ha, 0 to 100 scale where 0 is no effect and 100 is complete control
[10] = 31 g ai/ha, Preemergence, scale 0 to 100
[11] = 62 g ai/ha, preemergence, scale 0 (no effect) to 100 (complete control)
[12] = preemergence, 125 g ai/ha, scale 0 (no effect) to 100 (complete control)
[13] = 31 g ai/ha, scale 0 to 100 (0 no effect, 100 complete control)
[14] = 62 g ai/ha, scale 0 to 100, 0 no effect, 100 complete control, 13 to 15 days
[15] = 125 g ai/ha, scale 0 to 100, 0 no effect, 100 complete control, 13 to 15 days
[16] = 250 g ai/ha, scale 0 to 100 (0 no effect, 100 complete control)

## Cc1cc[n+]([O-])c(S(=O)(=O)C(C)c2c(C(F)(F)F)nn(C)c2OC(F)F)c1 (stereo not drawn) [Compound 11]
Crabgrass [1]; [6]
  Crabgrass, Large plant response rating: 70
Crabgrass [1]; [7]
  Crabgrass, Large plant response rating: 80
Crabgrass [1]; [8]
  Crabgrass, Large plant response rating: 90
Crabgrass [1]; [9]
  Plant response rating, Crabgrass, Large: 100
Italian ryegrass; [10]
  Ryegrass, Italian plant response rating: 0
Italian ryegrass; [11]
  Ryegrass, Italian plant response rating: 40
Italian ryegrass; Preemergence, 250 g ai/ha
  Plant response rating (0 to 100), Ryegrass, Italian: 80
Italian ryegrass; [12]
  Ryegrass, Italian plant response rating: 70
pigweed; [10]
  Pigweed plant response rating: 100
pigweed; [11]
  Pigweed plant response rating: 100
pigweed; Preemergence, 250 g ai/ha
  Plant response rating (0 to 100), Pigweed: 100
pigweed; [12]
  Pigweed plant response rating: 100
lambsquarters; [10]
  Lambsquarters plant response rating: 100
lambsquarters; [11]
  Lambsquarters plant response rating: 100
lambsquarters; Preemergence, 250 g ai/ha
  Plant response rating (0 to 100), Lambsquarters: 100
lambsquarters; [12]
  Lambsquarters plant response rating: 100
Goosegrass; [10]
  Goosegrass plant response rating: 100
Goosegrass; [11]
  Goosegrass plant response rating: 100
Goosegrass; Preemergence, 250 g ai/ha
  Plant response rating (0 to 100), Goosegrass: 100
Goosegrass; [12]
  Goosegrass plant response rating: 100
bermudagrass; [10]
  Bermudagrass plant response rating: 100
bermudagrass; [11]
  Bermudagrass plant response rating: 100
bermudagrass; Preemergence, 250 g ai/ha
  Plant response rating (0 to 100), Bermudagrass: 100
bermudagrass; [12]
  Bermudagrass plant response rating: 100
morningglory; [6]
  Morningglory plant response rating: 40
morningglory; [7]
  Morningglory plant response rating: 50
morningglory; [8]
  Morningglory plant response rating: 60
morningglory; [9]
  Plant response rating, Morningglory: 90
Barnyardgrass [2]; [6]
  Barnyardgrass plant response rating: 70
Barnyardgrass [2]; [7]
  Barnyardgrass plant response rating: 80
Barnyardgrass [2]; [8]
  Barnyardgrass plant response rating: 90
Barnyardgrass [2]; [9]
  Plant response rating, Barnyardgrass: 100
soybean; [10]
  Soybean plant response rating: 0
soybean; [11]
  Soybean plant response rating: 0
soybean; Preemergence, 250 g ai/ha
  Plant response rating (0 to 100), Soybean: 100
soybean; [12]
  Soybean plant response rating: 20
[3]; 62 g ai/ha
  Sunflower plant response rating: 30
[3]; Preemergence, 250 g ai/ha
  Plant response rating (0 to 100), Sunflower: 98
[3]; 125 g ai/ha
  Sunflower plant response rating: 98
cocklebur; [10]
  Cocklebur plant response rating: 0
cocklebur; [11]
  Cocklebur plant response rating: 0
cocklebur; Preemergence, 250 g ai/ha
  Plant response rating (0 to 100), Cocklebur: 0
cocklebur; [12]
  Cocklebur plant response rating: 0
Barnyardgrass [4]; [13]
  Plant response rating, Barnyardgrass: 0
Barnyardgrass [4]; [14]
  Plant response rating, Barnyardgrass: 70
Barnyardgrass [4]; [15]
  Plant response rating, Barnyardgrass: 75
Barnyardgrass [4]; [16]
  Plant response rating, Barnyardgrass: 85
kochia; [10]
  Kochia plant response rating: 60
kochia; [11]
  Kochia plant response rating: 100
kochia; Preemergence, 250 g ai/ha
  Plant response rating (0 to 100), Kochia: 100
kochia; [12]
  Kochia plant response rating: 100
Crabgrass [5]; [10]
  Crabgrass, Large plant response rating: 100
Crabgrass [5]; [11]
  Crabgrass, Large plant response rating: 100
Crabgrass [5]; Preemergence, 250 g ai/ha
  Plant response rating (0 to 100), Crabgrass, Large: 100
Crabgrass [5]; [12]
  Crabgrass, Large plant response rating: 100
Surinam grass; 62 g ai/ha
  Surinam Grass plant response rating: 80
Surinam grass; Preemergence, 250 g ai/ha
  Plant response rating (0 to 100), Surinam Grass: 100
Surinam grass; 125 g ai/ha
  Surinam Grass plant response rating: 95
Giant foxtail; [6]
  Foxtail, Giant plant response rating: 70
Giant foxtail; [7]
  Foxtail, Giant plant response rating: 80
Giant foxtail; [8]
  Foxtail, Giant plant response rating: 100
Giant foxtail; [9]
  Plant response rating, Foxtail, Giant: 100
Umbrella sedge; [13]
  Plant response rating, Sedge, Umbrella: 0
Umbrella sedge; [14]
  Plant response rating, Sedge, Umbrella: 90
Umbrella sedge; [15]
  Plant response rating, Sedge, Umbrella: 90
Umbrella sedge; [16]
  Plant response rating, Sedge, Umbrella: 90

Reference: US20100298141A1, “SUBSTITUTED PYRIDINE N-OXIDE HERBICIDES” (E. I. DU PONT DE NEMOURS AND COMPANY, priority 2007, published 2010)
